Data on eight compounds can be found in US8815565B2, “Method for culturing mycoplasma contamination-free cells and method for removing mycoplasma contamination of cells” (Cellsafe Co., Ltd., priority 2010, dated 2014).

The subject of assay [1] is Mycoplasma hyorhinis (ATCC17981s). Put plainly: Inhibition of Mycoplasma hyorhinis cultured in PPLO medium, INT colour change. The class given is cell-based. The following applies: final concentration at which INT colour change did not occur, 24 hours + 4 hours at 37° C.; for IC50: Mycoplasma, read-out: IC50. As to the method: In order to evaluate the effects of the extract and amphidinol derivatives prepared in Example 1 on mycoplasma, Mycoplasma hyorhinis (ATCC17981s) was cultured in a PPLO medium (pleuropneumonia-like organism basal medium, Difco Laboratories, Detroit, USA) supplemented with a fetal calf serum and a yeast extract, according to the method disclosed by Hayflick (Hayflick, 1965, Tex. Rep. Bio. Med. 23, 285-303). That is, 100 μl of the medium was placed on each well of a 96-well plate, and a sample (that is, the extract and amphidinol derivatives prepared in Example 1) was added to each well, such that each sample was diluted from 2 times (i.e., 2× diluted) to 12 times (i.e., 12× diluted), the starting concentration being 1 mg/ml. Mycoplasma was cultured in a PPLO medium (pleuropneumonia-like organism basal medium, Difco Laboratories, Detroit, USA) supplemented with a fetal calf serum and a yeast extract, at a temperature of 37° C. for 48 hours. The resulting culture medium was diluted with the PPLO medium at a ratio of 1:10. 100 μl of the diluted culture medium was added to each well of the 96-well plate, so that the total amount of each well was 200 μl. After culturing at a temperature of 37° C. for 24 hours, 40 μl of 0.2 mg/ml INT (p-iodonitrotetrazolium) was added thereto and culturing was further performed for 4 hours. If the medium turns pink following the culturing, the color change means that metabolism of mycoplasma actively occurs. Also, if mycoplasma is suppressed by the sample, the medium turned pink less.

Assay [2] concerns HepG2 cell line contaminated with mycoplasma. Put plainly: Co-treatment with amphidinol 3 (AM3) and cyclic lipopeptide/antibiotic, PCR with mycoplasma diagnosis kit. It is filed as cell-based. The procedure: The cell lines NIH3T3, HepG2, and Raw 264.7, which were confirmed to be contaminated with mycoplasma, were each inoculated at a concentration of 1×10^6 cells on a T-75 culture flask (NUNC, Cat. No. 156367). DMEM (GIBCO BRL, Cat. No. 12800-058) containing 10% or less of serum (GIBCO BRL, Cat. […] After culturing for 3 days, the obtained cells were treated with Trypsin-EDTA to obtain a cell solution. The resulting cells (1×10^6 cells) which was treated with amphidinol 3 (AM3) were inoculated. DMEM (GIBCO BRL, Cat. No. 12800-058) containing 10% or less of serum (GIBCO BRL, Cat. […] After culturing for 3 days, the cells were harvested. PCR was performed thereon with a mycoplasma diagnosis kit (Promokine, Germany; Cellsafe Co., Ltd., Korea) according to the enclosed protocol. The resulting PCR products were electrophoresed on a 1% agarose gel to measure the mycoplasma contamination.

*1 amine or outer side, *2 acyl side, *3 side chain or, on linkers, in order; H or OH if unused. Where a SMILES comes first, the peptide text is derived from it. Bridges are numbered along the chain shown (N, C = ends). [ ]: non-standard residue; d: D form. X1 = CC(C)CCCCCCCCC[C@H](CC(=O)[*:1])O[*:2]

For amphidinol 5 [AM5], the “minimum inhibitory concentration (no INT colour change)” value in assay [1] is on record as “+++ (+++: 1~20 μg/ml)”.
The same measure, in the same setting: next, `C=CCC/C=C/C=C/C=C/CC/C=C/C(O)C(O)C1OC(C(O)C(O)C(=C)CCC(O)C2CC(O)C(O)C(C(O)C(O)/C=C(\C)CCC(O)CC(O)C(O)C(C)CC(O)C(O)CCCC(O)CCCC(O)CCCC(O)/C=C/CC(O)/C=C/CC(O)CO)O2)CC(O)C1O` (stereo not drawn) [AM6, amphidinol 6]: “+++ (+++: 1~20 μg/ml)”.
Broadly, the IC50 is the concentration that inhibits the measured activity by half. In the case of `C=C/C=C/CC/C=C/C=C/C=C/CC/C=C/C(O)C(O)C1OC(C(O)C(O)C(=C)CCC(O)C2CC(O)C(O)C(C(O)C(O)/C=C(\C)CCC(O)CC(O)C(O)C(C)C(O)CCCC(O)CCCC(O)CCCC(O)/C=C/CC(O)/C=C/CC(O)CO)O2)CC(O)C1O` (stereo not drawn) [AM9, amphidinol 9], in assay [1], the IC50 fell in the range of 1 to 20 µg/mL.
amphidinol 2 [AM2]: in assay [1], the “minimum inhibitory concentration (no INT colour change)” value is “+++ (+++: 1~20 μg/ml)”.
For the compound `C=C/C=C/CC/C=C/C=C/C=C/CC/C=C/C(O)C(O)C1OC(C(O)C(O)C(=C)CCC(O)C2CC(O)C(O)C(C(O)C(O)/C=C(\C)CCC(O)CC(O)C(O)C(C)CC(O)C(O)C(C)CCC(O)CCCC(O)CCCC(O)CCCC(O)/C=C/CC(CO)OS(=O)(=O)[O-])O2)CC(O)C1O.[Na+]` (stereo not drawn) [AM1, amphidinol 1], the IC50 in assay [1] was in the range of 1 to 20 µg/mL.
Same read-out and setting: next, `C=CCC/C=C/C=C/C=C/CC/C=C/C(O)C(O)C1OC(C(O)C(O)C(=C)CCC(O)C2CC(O)C(O)C(C(O)C(O)/C=C(\C)CCC(O)CC(O)C(O)C(C)CC(O)C(O)CCCC(O)CCCC(O)/C=C/CC(O)/C=C/CC(O)CO)O2)CC(O)C1O` (stereo not drawn) [AM10]: 10 to 100 µg/mL.
With `CC(C)CCCCCCCCC[C@@H]1CC(=O)N[C@@H](CCC(=O)O)C(=O)N[C@@H](CC(C)C)C(=O)N[C@H](CC(C)C)C(=O)N[C@@H](C(C)C)C(=O)N[C@@H](CC(=O)O)C(=O)N[C@H](CC(C)C)C(=O)N[C@@H](CC(C)C)C(=O)O1` [surfactin] (EL[dL]VD[dL]L; linker N-C via X1), the mycoplasma contamination entry was “mycoplasma contamination remained” in assay [2] (used alone, surfactin 10 or 20 μM, ciprofloxacin 1 or 5 μg/ml, rifampicin 0.5 or 1 μg/ml); “completely removed” in assay [2] (used together with amphidinol 3 (AM3) 5 and 10 μg/ml).
In the case of amphidinol 7 [AM7], in assay [1], the “minimum inhibitory concentration (no INT colour change)” value is on record as “+++ (+++: 1~20 μg/ml)”.
